Source: patent US11104648B2, “Pyrazole derivative” (Zhejiang Research Institute of Chemical Industry Co., Ltd., priority 2018, dated 2021)
Like-named read-outs stand apart in the source and are kept apart here.

Experiments:
Type in all cases: in vivo
[1] = test system: adult Tetranychus cinnabarinus; assay: Activity assay of adult Tetranychus cinnabarinus (whole-plant spray on bean seedlings); details: 48 h, read-out: adult mite-killing activity; for pest or weed control at 1.25 µg/mL: concentration 1.25 mg/L
Method: According to the solubility of the test compound, the crude drug was dissolved in N, N-dimethlfornamide, and then prepared into a test solution of the desired concentration with 1‰ Tween 80 aqueous solution. The content of N,N-dimethylformamide in the solution should not exceed 10%.
Two euphylla bean seedlings were taken, after inoculated with adult Tetranychus cinnabarinus and the base number was investigated, whole plants were sprayed with a hand-held sprayer. The experiment was repeated three times for each treatment, after treatment, placed in a standard observation room after treatment, to investigate the survival number of mites in 48 hand calculate the death rate.

[2] = test system: Tetranychus cinnabarinus Nymphs; assay: Activity assay of Tetranychus cinnabarinus nymphs (spray on broad bean leaves)
Method: According to the solubility of the test compound, the crude drug was dissolved in N, N-dimethylformamide, and then prepared into a test solution of the desired concentration with 1‰ Tween 80 aqueous solution. The content of N,N-dimethylformamide in the solution should not exceed 10%.
The broad bean leaves with petioles were cut and inserted into a small bottle with water. A certain number of brightly colored, active female adult mites were placed, 24h later, adult mites were removed, and leaves with insufficient eggs were removed. When eggs were hatched and grew into nymphs, spray treatment was performed. The experiment was repeated three times, and a blank control was set, and placed to an observation room (26±2° C., humidity 70%˜80%, 16h light per day) for culture. 48 h later, the results were investigated. The nymphs were gently touched during investigation, and if no response, they were regarded as deaths.

[3] = test system: Eggs of Tetranychus Cinnabarinus; assay: Activity assay of eggs of Tetranychus cinnabarinus (spray method, ovicidal); details: for pest or weed control at 5 µg/mL / pest or weed control at 2 µg/mL: Tetranychus cinnabarinus, read-out: ovicidal activity
Method: According to the solubility of the test compound, the crude drug was dissolved in N N-dimethylformamide, and then prepared into a test solution of the desired concentration with 1‰ Tween 80 aqueous solution. The content of N. N-dimethylformamide in the solution should not exceed 10%.
Spray method. The broad bean leaves with petioles were cut and inserted into a bottle with water. A certain number of female mites were placed, 24h later, adult mites were removed, and spray treatment was performed in 24 h. The experiment was repeated three times, and a blank control was set, and placed to an observation room (26±2° C., humidity 70%˜80%, 16h light per day) for culture. When the blank control group was incubated, the results were investigated. The non-incubated ones were used as death for investigation.

[4] = 48 h, concentration 2.5 mg/L, read-out: nymph-killing activity
[5] = concentration 5 mg/L, spray, non-incubated eggs counted as dead
[6] = 48 h, read-out: nymph-killing activity
[7] = 48 h, concentration 2 mg/L, read-out: nymph-killing activity

Structure (SMILES) | pest or weed control at 2.5 µg/mL ([1]; concentration 2.5 mg/L) | pest or weed control at 2.5 µg/mL [2, 4] | pest or weed control at 5 µg/mL [3, 5] | other results
COCC(=O)OC(C)O/C(=C(/C#N)c1ccc(C(C)(C)C)cc1)c1c(C)c(C)nn1C (stereo not shown) [Compound 183] | ≥ 90% | ≥ 95% | ≥ 90% | 
Cc1nn(C)c(/C(OC(C)OC(=O)C2CC2)=C(\C#N)c2ccc(C(C)(C)C)cc2)c1Cl (stereo not shown) [Compound 109] | ≥ 90% | ≥ 95% | ≥ 90% | 
CCn1nc(C)cc1/C(OC(C)OC(=O)c1ccccc1)=C(\C#N)c1ccc(C(C)(C)C)cc1 (stereo not shown) [Compound 264] | ≥ 90% | ≥ 95% | ≥ 90% | 
CCC(=O)OC(C)O/C(=C(/C#N)c1ccc(C(C)(C)C)cc1)c1c(C)c(C)nn1C (stereo not shown) [Compound 177] | ≥ 90% | ≥ 95% | ≥ 90% | 
Cc1cc(/C(OC(C)OC(=O)C(F)(F)F)=C(\C#N)c2ccc(C(C)(C)C)cc2)n(C)n1 (stereo not shown) [Compound 38] | ≥ 90% | ≥ 95% | ≥ 90% | 
CCn1nc(C)cc1/C(OC(C)OC(=O)CF)=C(\C#N)c1ccc(C(C)(C)C)cc1 (stereo not shown) [Compound 262] |  |  |  | pest or weed control at 2.5 µg/mL [1]: ≥ 90%; pest or weed control at 2.5 µg/mL [2, 6]: ≥ 95%; pest or weed control at 5 µg/mL [3]: ≥ 90%
CCn1nc(C)c(C)c1/C(OC(C)OC(=O)CF)=C(\C#N)c1ccc(C(C)(C)C)cc1 (stereo not shown) [Compound 412] |  |  |  | pest or weed control at 2.5 µg/mL [1]: ≥ 90%; pest or weed control at 2.5 µg/mL [2, 6]: ≥ 95%; pest or weed control at 5 µg/mL [3]: ≥ 90%
CCCC(=O)OCO/C(=C(/C#N)c1ccc(C(C)(C)C)cc1)c1c(C)c(C)nn1CC [Compound 378] | ≥ 90% | ≥ 95% | ≥ 90% | 
CCCC(=O)OCO/C(=C(/C#N)c1ccc(C(C)(C)C)cc1)c1c(Cl)c(C)nn1C [Compound 78] | ≥ 90% | ≥ 95% | ≥ 90% | 
C=CCOC(=O)OC(C)O/C(=C(/C#N)c1ccc(C(C)(C)C)cc1)c1cc(C)nn1CC (stereo not shown) [Compound 602] | ≥ 90% | ≥ 95% | ≥ 90% | pest or weed control at 1.25 µg/mL [1]: ≥ 90%; pest or weed control at 2 µg/mL [2, 7]: ≥ 90%; pest or weed control at 2 µg/mL ([3]; concentration 2 mg/L, spray): ≥ 90%
Cc1cc(/C(OC(C)OC(=O)OCCC(C)C)=C(\C#N)c2ccc(C(C)(C)C)cc2)n(C)n1 (stereo not shown) [Compound 490] | ≥ 90% | ≥ 95% | ≥ 90% | 
CCn1nc(C)cc1/C(OCOC(=O)OC(C)C)=C(\C#N)c1ccc(C(C)(C)C)cc1 [Compound 550] | ≥ 90% | ≥ 95% | ≥ 90% | pest or weed control at 1.25 µg/mL [1]: ≥ 90%; pest or weed control at 2 µg/mL [2, 7]: ≥ 90%; pest or weed control at 2 µg/mL ([3]; concentration 2 mg/L, spray): ≥ 90%
CCn1nc(C)c(Cl)c1/C(OC(C)OC(=O)C1CC1)=C(\C#N)c1ccc(C(C)(C)C)cc1 (stereo not shown) [Compound 334] | ≥ 90% | ≥ 95% | ≥ 90% | 
Cc1nn(C)c(/C(OC(C)OC(=O)C2CC2)=C(\C#N)c2ccc(C(C)(C)C)cc2)c1C (stereo not shown) [Compound 184] | ≥ 90% | ≥ 95% | ≥ 90% | 
CCn1nc(C)c(C)c1/C(OC(C)OC(=O)C1CC1)=C(\C#N)c1ccc(C(C)(C)C)cc1 (stereo not shown) [Compound 409] | ≥ 90% | ≥ 95% | ≥ 90% | pest or weed control at 1.25 µg/mL [1]: ≥ 90%; pest or weed control at 2 µg/mL [2, 7]: ≥ 90%; pest or weed control at 2 µg/mL ([3]; concentration 2 mg/L, spray): ≥ 90%
CCn1nc(C)c(Cl)c1/C(OC(C)OC(=O)Cc1ccccc1)=C(\C#N)c1ccc(C(C)(C)C)cc1 (stereo not shown) [Compound 340] | ≥ 90% |  | ≥ 90% | pest or weed control at 2.5 µg/mL ([2]; concentration 2.5 mg/L, 48 h, read-out: nymph-killing activity): ≥ 95%
CCC(C)(C)C(=O)OC(C)O/C(=C(/C#N)c1ccc(C(C)(C)C)cc1)c1c(Cl)c(C)nn1C (stereo not shown) [Compound 116] | ≥ 90% | ≥ 95% | ≥ 90% | 
Cc1nn(C)c(/C(OC(C)OC(=O)C(F)(F)F)=C(\C#N)c2ccc(C(C)(C)C)cc2)c1C (stereo not shown) [Compound 188] | ≥ 90% | ≥ 95% | ≥ 90% | 

Structure (SMILES) | pest or weed control at 2.5 µg/mL ([1]; concentration 2.5 mg/L) | pest or weed control at 2.5 µg/mL [2, 4] | pest or weed control at 5 µg/mL [3, 5] | other results
CCCCOC(=O)OC(C)O/C(=C(/C#N)c1ccc(C(C)(C)C)cc1)c1cc(C)nn1CC (stereo not shown) [Compound 584] | ≥ 90% | ≥ 95% | ≥ 90% | 
Cc1nn(C)c(/C(OCOC(=O)CF)=C(\C#N)c2ccc(C(C)(C)C)cc2)c1C [Compound 162] |  |  |  | pest or weed control at 2.5 µg/mL [1]: ≥ 90%; pest or weed control at 2.5 µg/mL [2, 6]: ≥ 95%; pest or weed control at 5 µg/mL [3]: ≥ 90%
CCCCC(=O)OC(C)O/C(=C(/C#N)c1ccc(C(C)(C)C)cc1)c1c(C)c(C)nn1CC (stereo not shown) [Compound 406] | ≥ 90% | ≥ 95% | ≥ 90% | 
CCn1nc(C)cc1/C(OCOC(=O)OCCSC)=C(\C#N)c1ccc(C(C)(C)C)cc1 [Compound 567] | ≥ 90% | ≥ 95% | ≥ 90% | 
CCCCC(=O)OC(C)O/C(=C(/C#N)c1ccc(C(C)(C)C)cc1)c1c(Cl)c(C)nn1C (stereo not shown) [Compound 106] | ≥ 90% | ≥ 95% | ≥ 90% | 
CCn1nc(C)c(C)c1/C(OC(C)OC(=O)CC(C)C)=C(\C#N)c1ccc(C(C)(C)C)cc1 (stereo not shown) [Compound 407] | ≥ 90% | ≥ 95% | ≥ 90% | 
CCC(=O)OC(C)O/C(=C(/C#N)c1ccc(C(C)(C)C)cc1)c1c(Cl)c(C)nn1C (stereo not shown) [Compound 102] | ≥ 90% | ≥ 95% | ≥ 90% | 
CCn1nc(C)cc1/C(OCOC(=O)C1CCCCC1)=C(\C#N)c1ccc(C(C)(C)C)cc1 [Compound 236] | ≥ 90% | ≥ 95% | ≥ 90% | 
CCn1nc(C)c(Cl)c1/C(OCOC(=O)C(C)C)=C(\C#N)c1ccc(C(C)(C)C)cc1 [Compound 304] | ≥ 90% | ≥ 95% | ≥ 90% | 
CCn1nc(C)cc1/C(OCOC(=O)OCCOC)=C(\C#N)c1ccc(C(C)(C)C)cc1 [Compound 564] | ≥ 90% | ≥ 95% | ≥ 90% | 
COCC(=O)OCO/C(=C(/C#N)c1ccc(C(C)(C)C)cc1)c1c(C)c(C)nn1C [Compound 158] | ≥ 90% | ≥ 95% | ≥ 90% | 
CCCCCOC(=O)OC(C)O/C(=C(/C#N)c1ccc(C(C)(C)C)cc1)c1cc(C)nn1CC (stereo not shown) [Compound 588] | ≥ 90% | ≥ 95% | ≥ 90% | 
C=CC(=O)OC(C)O/C(=C(/C#N)c1ccc(C(C)(C)C)cc1)c1cc(C)nn1CC (stereo not shown) [Compound 267] | ≥ 90% | ≥ 95% | ≥ 90% | 
Cc1cc(/C(OCOC(=O)c2ccccc2)=C(\C#N)c2ccc(C(C)(C)C)cc2)n(C)n1 [Compound 14] | ≥ 90% | ≥ 95% | ≥ 90% | 
CCn1nc(C)c(Cl)c1/C(OCOC(=O)C1CC1)=C(\C#N)c1ccc(C(C)(C)C)cc1 [Compound 309] | ≥ 90% | ≥ 95% | ≥ 90% | pest or weed control at 1.25 µg/mL [1]: ≥ 90%; pest or weed control at 2 µg/mL [2, 7]: ≥ 90%; pest or weed control at 2 µg/mL ([3]; concentration 2 mg/L, spray): ≥ 90%
CCn1nc(C)c(C)c1/C(OC(C)OC(=O)C1CCCCC1)=C(\C#N)c1ccc(C(C)(C)C)cc1 (stereo not shown) [Compound 411] | ≥ 90% | ≥ 95% | ≥ 90% | 
COC(=O)CSC(=O)OCO/C(=C(/C#N)c1ccc(C(C)(C)C)cc1)c1cc(C)nn1C [Compound 481] | ≥ 90% | ≥ 95% | ≥ 90% | 
COC(=O)OC(C)O/C(=C(/C#N)c1ccc(C(C)(C)C)cc1)c1c(Cl)c(C)nn1C (racemic) [Compound 675] |  |  |  | Death rate (%) ([3]; eggs, concentration 2 mg/L, parallel determination): 100%
